Test results reported in US20070117743A1, “New antitumoral compounds” (priority 2003, published 2007).

Columns and labels:
Type in all cases: cell-based, human
HT-29 = assay: SRB colorimetric assay of cell growth and viability, HT-29; settings: 48 hours exposure, SRB; for GI50: read-out: GI50 HT-29; for CC50: read-out: LC50 HT-29
SK-MEL-28 = assay: SRB colorimetric assay of cell growth and viability, SK-MEL-28; settings: 48 hours exposure, SRB; for CC50: read-out: LC50 MEL-28
HeLa = assay: SRB colorimetric assay of cell growth and viability, HeLa; settings: 48 hours exposure, SRB; for CC50: read-out: LC50 HELA
DU-145 = assay: SRB colorimetric assay of cell growth and viability, DU-145; settings: 48 hours exposure, SRB
HeLa-APL = assay: SRB colorimetric assay of cell growth and viability, HeLa-APL; settings: 48 hours exposure, SRB; for CC50: read-out: LC50 HELA-APL
IGROV-1 = assay: SRB colorimetric assay of cell growth and viability, IGROV-1; settings: 48 hours exposure, SRB
LoVo = assay: SRB colorimetric assay of cell growth and viability, LoVo; settings: 48 hours exposure, SRB; for CC50: read-out: LC50 LOVO
PANC-1 = assay: SRB colorimetric assay of cell growth and viability, PANC-1; settings: 48 hours exposure, SRB; for CC50: read-out: LC50 PANC-1
SK-BR-3 = assay: SRB colorimetric assay of cell growth and viability, SK-BR-3; settings: 48 hours exposure, SRB
LNCaP = assay: SRB colorimetric assay of cell growth and viability, LNCaP; settings: 48 hours exposure, SRB; for GI50: read-out: GI50 LN-caP; for CC50: read-out: LC50 LN-caP
LoVo-Dox = assay: SRB colorimetric assay of cell growth and viability, LoVo-Dox; settings: 48 hours exposure, SRB; for CC50: read-out: LC50 LOVO-DOX
Method in brief: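 Human tumor cells seeded at 5×10^3/well in RPMI 1640 10% FBS, attached 18 hours, then exposed 48 hours to compound (10 to 10^−8 μg/mL). TCA-fixed, SRB-stained, OD 490 nm; triplicates give GI, TGI and LC values.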

A-549 = assay: SRB colorimetric assay of cell growth and viability, A-549; settings: 48 hours exposure, SRB; for GI50: read-out: GI50 A-549; for CC50: read-out: LC50 A-549
IGROV-ET = assay: SRB colorimetric assay of cell growth and viability, IGROV-ET; settings: 48 hours exposure, SRB; for CC50: read-out: LC50 IGROV-ET

SMILES	TGI HT-29 (HT-29)	GI50 (HT-29)	CC50 (HT-29)	GI50 (SK-MEL-28)	TGI MEL-28 (SK-MEL-28)	CC50 (SK-MEL-28)	GI50 (HeLa)	TGI HELA (HeLa)	GI50 (DU-145)	LC50 (concentration causing 50% net cell kill) (DU-145)	TGI DU-145 (DU-145)	GI50 (HeLa-APL)	TGI HELA-APL (HeLa-APL)	CC50 (HeLa-APL)	GI50 (IGROV-1)	LC50 (concentration causing 50% net cell killing) (IGROV-1)	TGI IGROV (IGROV-1)	GI50 (LoVo)	TGI LOVO (LoVo)	CC50 (LoVo)	other results
C/C=C1\NC(=O)[C@H](Cc2ccc(Cl)c(Cl)c2)NC(=O)[C@@H](C(C)C)NC(=O)[C@@H]([C@@H](C)CC)NC(=O)[C@H](NC(=O)[C@H](NC(=O)[C@H](CCCN)NC(=O)[C@H]2CCCN2C(=O)[C@H](NC(=O)[C@@H](NC(=O)[C@@H](NC(=O)[C@H](NC(=O)CC[C@@H](C)CC)C(C)C)[C@@H](C)O)C(C)C)C(C)C)[C@@H](C)CC)[C@@H](C)OC(=O)[C@H](C(C)C)NC1=O [Compound 70, [Phe(3,4-Cl2)^3, (4S)-MeHex^14]-KF]	2.13E−07 Molar	111 nM	412 nM	120 nM	2.39E−07 Molar	475 nM	125 nM	2.22E−07 Molar	142 nM	465 nM	2.57E−07 Molar	259 nM	7.63E−07 Molar	2240 nM	182 nM	487 nM	2.97E−07 Molar	68.5 nM	4.11E−07 Molar	1730 nM	CC50 (HeLa): 397 nM; GI50 (PANC-1): 1000 nM; TGI PANC-1 (PANC-1): 1.85E−06 Molar; CC50 (PANC-1): 3420 nM; GI50 (SK-BR-3): 52.8 nM; LC50 (SK-BR-3): 299 nM; TGI SK-BR-3 (SK-BR-3): 1.18E−08 Molar; TGI LN-caP (LNCaP): 2.08E−07 Molar; GI50 (LNCaP): 66.6 nM; CC50 (LNCaP): 6470 nM; GI50 (LoVo-Dox): 28.5 nM; TGI LOVO-DOX (LoVo-Dox): 8.15E−08 Molar; CC50 (LoVo-Dox): 612 nM; TGI A-549 (A-549): 3.32E−07 Molar; GI50 (A-549): 183 nM; CC50 (A-549): 604 nM; GI50 (IGROV-ET): 112 nM; TGI IGROV-ET (IGROV-ET): 2.09E−07 Molar; CC50 (IGROV-ET): 387 nM
C/C=C1\NC(=O)[C@H](Cc2c(F)c(F)c(F)c(F)c2F)NC(=O)[C@@H](C(C)C)NC(=O)[C@@H]([C@@H](C)CC)NC(=O)[C@H](NC(=O)[C@H](NC(=O)[C@H](CCCN)NC(=O)[C@H]2CCCN2C(=O)[C@H](NC(=O)[C@@H](NC(=O)[C@@H](NC(=O)[C@H](NC(=O)CC[C@@H](C)CC)C(C)C)[C@@H](C)O)C(C)C)C(C)C)[C@@H](C)CC)[C@@H](C)OC(=O)[C@H](C(C)C)NC1=O [Compound 71, [Phe(F5)^3, (4S)-MeHex^14]-KF]	9.82E−07 Molar	330 nM	267 nM	1520 nM	2.40E−06 Molar	3800 nM	836 nM	1.63E−06 Molar	1220 nM	3640 nM	2.11E−06 Molar	1330 nM	2.22E−06 Molar	3700 nM	526 nM	2720 nM	1.21E−06 Molar	166 nM	2.77E−07 Molar	462 nM	CC50 (HeLa): 3160 nM; GI50 (PANC-1): 1560 nM; TGI PANC-1 (PANC-1): 4.41E−06 Molar; CC50 (PANC-1): 6380 nM; GI50 (SK-BR-3): 228 nM; LC50 (SK-BR-3): 554 nM; TGI SK-BR-3 (SK-BR-3): 3.56E−07 Molar; TGI LN-caP (LNCaP): 1.12E−06 Molar; GI50 (LNCaP): 394 nM; CC50 (LNCaP): 2700 nM; GI50 (LoVo-Dox): 184 nM; TGI LOVO-DOX (LoVo-Dox): 2.90E−07 Molar; CC50 (LoVo-Dox): 456 nM; TGI A-549 (A-549): 2.62E−06 Molar; GI50 (A-549): 1750 nM; CC50 (A-549): 3920 nM; GI50 (IGROV-ET): 443 nM; TGI IGROV-ET (IGROV-ET): 5.35E−07 Molar; CC50 (IGROV-ET): 848 nM
C/C=C1\NC(=O)[C@H](Cc2ccc(I)cc2)NC(=O)[C@@H](C(C)C)NC(=O)[C@@H]([C@@H](C)CC)NC(=O)[C@H](NC(=O)[C@H](NC(=O)[C@H](CCCN)NC(=O)[C@H]2CCCN2C(=O)[C@H](NC(=O)[C@@H](NC(=O)[C@@H](NC(=O)[C@H](NC(=O)CC[C@@H](C)CC)C(C)C)[C@@H](C)O)C(C)C)C(C)C)[C@@H](C)CC)[C@@H](C)OC(=O)[C@H](C(C)C)NC1=O [Compound 72, [Phe(4-I)^3, (4S)-MeHex^14]-KF]	2.30E−07 Molar	120 nM	441 nM	190 nM	4.05E−07 Molar	1200 nM	133 nM	2.24E−07 Molar	132 nM	425 nM	2.37E−07 Molar	287 nM	7.73E−07 Molar	2280 nM	170 nM	443 nM	2.74E−07 Molar	129 nM	2.35E−07 Molar	428 nM	CC50 (HeLa): 379 nM; GI50 (PANC-1): 885 nM; TGI PANC-1 (PANC-1): 1.68E−06 Molar; CC50 (PANC-1): 3200 nM; GI50 (SK-BR-3): 125 nM; LC50 (SK-BR-3): 416 nM; TGI SK-BR-3 (SK-BR-3): 2.28E−07 Molar; TGI LN-caP (LNCaP): 8.42E−07 Molar; GI50 (LNCaP): 270 nM; CC50 (LNCaP): 2380 nM; GI50 (LoVo-Dox): 49.8 nM; TGI LOVO-DOX (LoVo-Dox): 1.23E−07 Molar; CC50 (LoVo-Dox): 274 nM; TGI A-549 (A-549): 3.47E−07 Molar; GI50 (A-549): 214 nM; CC50 (A-549): 559 nM; GI50 (IGROV-ET): 259 nM; TGI IGROV-ET (IGROV-ET): 3.84E−07 Molar; CC50 (IGROV-ET): 570 nM
C/C=C1\NC(=O)[C@H](Cc2ccc([N+](=O)[O-])cc2)NC(=O)[C@@H](C(C)C)NC(=O)[C@@H]([C@@H](C)CC)NC(=O)[C@H](NC(=O)[C@H](NC(=O)[C@H](CCCN)NC(=O)[C@H]2CCCN2C(=O)[C@H](NC(=O)[C@@H](NC(=O)[C@@H](NC(=O)[C@H](NC(=O)CC[C@@H](C)CC)C(C)C)[C@@H](C)O)C(C)C)C(C)C)[C@@H](C)CC)[C@@H](C)OC(=O)[C@H](C(C)C)NC1=O [Compound 73, [Phe(4-NO2)^3, (4S)-MeHex^14]-KF]	2.32E−07 Molar	127 nM	426 nM	223 nM	4.71E−07 Molar	1480 nM	173 nM	2.80E−07 Molar	233 nM	2040 nM	6.57E−07 Molar	521 nM	1.30E−06 Molar	2950 nM	173 nM	488 nM	2.90E−07 Molar	112 nM	2.04E−07 Molar	372 nM	CC50 (HeLa): 450 nM; GI50 (PANC-1): 952 nM; TGI PANC-1 (PANC-1): 1.85E−06 Molar; CC50 (PANC-1): 3580 nM; GI50 (SK-BR-3): 150 nM; LC50 (SK-BR-3): 574 nM; TGI SK-BR-3 (SK-BR-3): 2.94E−07 Molar; TGI LN-caP (LNCaP): 8.41E−07 Molar; GI50 (LNCaP): 377 nM; CC50 (LNCaP): 2320 nM; GI50 (LoVo-Dox): 33.5 nM; TGI LOVO-DOX (LoVo-Dox): 9.46E−08 Molar; CC50 (LoVo-Dox): 255 nM; TGI A-549 (A-549): 1.24E−06 Molar; GI50 (A-549): 532 nM; CC50 (A-549): 2760 nM; GI50 (IGROV-ET): 229 nM; TGI IGROV-ET (IGROV-ET): 3.26E−07 Molar; CC50 (IGROV-ET): 467 nM
C/C=C1\NC(=O)[C@H](Cc2ccc(F)cc2)NC(=O)[C@@H](C(C)C)NC(=O)[C@@H]([C@@H](C)CC)NC(=O)[C@H](NC(=O)[C@H](NC(=O)[C@H](CCCN)NC(=O)[C@H]2CCCN2C(=O)[C@H](NC(=O)[C@@H](NC(=O)[C@@H](NC(=O)[C@H](NC(=O)CC[C@@H](C)CC)C(C)C)[C@@H](C)O)C(C)C)C(C)C)[C@@H](C)CC)[C@@H](C)OC(=O)[C@H](C(C)C)NC1=O [Compound 74, [Phe(4-F)^3, (4S)-MeHex^14]-KF]	2.61E−07 Molar	137 nM	499 nM	829 nM	1.64E−06 Molar	3230 nM	214 nM	3.78E−07 Molar	796 nM	3250 nM	1.61E−06 Molar	675 nM	1.46E−06 Molar	3150 nM	206 nM	943 nM	3.88E−07 Molar	139 nM	2.35E−07 Molar	395 nM	GI50 (PANC-1): 1080 nM; TGI PANC-1 (PANC-1): 1.98E−06 Molar; CC50 (PANC-1): 3600 nM; GI50 (SK-BR-3): 213 nM; LC50 (SK-BR-3): 495 nM; TGI SK-BR-3 (SK-BR-3): 3.24E−07 Molar; TGI LN-caP (LNCaP): 1.02E−06 Molar; GI50 (LNCaP): 402 nM; CC50 (LNCaP): 2590 nM; GI50 (LoVo-Dox): 153 nM; TGI LOVO-DOX (LoVo-Dox): 3.09E−07 Molar; CC50 (LoVo-Dox): 624 nM; TGI A-549 (A-549): 1.76E−06 Molar; GI50 (A-549): 956 nM; CC50 (A-549): 3230 nM; GI50 (IGROV-ET): 212 nM; TGI IGROV-ET (IGROV-ET): 3.18E−07 Molar; CC50 (IGROV-ET): 477 nM
